Results from the supplement of paper PMC11208160.

Experiment: recombinant barcode read abundance after kanamycin selection (control-corrected) (log10(CPM+1)); higher = more efficient recombination; sequences stand for … in AGTGCAGAGAAAATCGGCCAGTTTTCTCTGCCTGCAGTCCGCATGCCGT…AGATTTATGCAGCGGACTGCCTTTCTCCCAAAGTGATAAACCGGACAGTATCATGGACCGGTTTTCCCGGTAATCCGTATTTGCAAGGTTGGTTTCACT; site = the 11-nt target
Summary of the method: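 Recombination efficiency comes from barcode counts at recombinant junctions, converted to counts per million, averaged and corrected against the control. Values appear as log10(CPM+1). They were obtained from a pooled E. coli screen in which each oligo paired a target with an IS621 bridge RNA target-binding loop, and cells were plated in duplicate on chloramphenicol/ampicillin LB agar or on chloramphenicol/ampicillin/kanamycin with 0.1 mM IPTG.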
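Further: IS621 recombinase and bridge RNA in Escherichia coli cells.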

Sequence	recombinant barcode read abundance (log10)
TACATTCCTTGGGTTCTAACCTGTTGCCT (site AACATTCCTAG)	0.0286
CGCGAATCTTGGGTTCTAACCTGTTGCTT (site CGCGAATCTAA)	0.0373
ATGTCTACTTGGGTTCTAACCTGTTGCAG (site ATGTCTACTCT)	0.673
CAATCACCTTGGGTTCTAACCTGTTGCTT (site CAATCACCTAA)	0.794
ACTCTGGCTTGGGTTCTAACCTGTTGCCT (site ACACTGGCTAG)	0.0916
CTGATCCCTTGGGTTCTAACCTGTTGCGG (site CTGTTCCCTCC)	0.0812
TAGATCGCTTGGGTTCTAACCTGTTGCAG (site TAGGTCGCTAT)	0.266
TACTTCTCTTGGGTTCTAACCTGTTGCCT (site TACTTCTCTAG)	0.764
AATACTACTTGGGTTCTAACCTGTTGCCT (site AGTACTACTAG)	0.0104
GGGACGACTTGGGTTCTAACCTGTTGCTT (site GGGACGACTTA)	0.0442
GTCGATCCTTGGGTTCTAACCTGTTGCCT (site GCCGATCCTAG)	0.639
CGGAAGGCTTGGGTTCTAACCTGTTGCCT (site CGGAAGTCTAG)	0.401
AGTCAGACTTGGGTTCTAACCTGTTGCAC (site CTAAGCGCTAG)	0.396
GTGTATACTTGGGTTCTAACCTGTTGCAT (site TAACTAGCTTA)	0.0503
TATAACACTTGGGTTCTAACCTGTTGCCG (site CTACTATCTGC)	0.0288
CATATGACTTGGGTTCTAACCTGTTGCCT (site TCAGGAGCTTA)	0.126
CGCGGTTCTTGGGTTCTAACCTGTTGCCT (site CGAGGTTCTAG)	0.339
GGTTGGGCTTGGGTTCTAACCTGTTGCAG (site GGTTGGGCTCT)	1.46

Sequence	recombinant barcode read abundance (log10)
TTAGTGCCTTGGGTTCTAACCTGTTGCCT (site TTAGTGCCTAG)	2.14
CGGTCTGCTTGGGTTCTAACCTGTTGCAT (site GCTAGGACTCA)	0.217
CTACGGACTTGGGTTCTAACCTGTTGCTG (site CTACGGACTCA)	2.77
GACTGGTCTTGGGTTCTAACCTGTTGCAT (site GACTGGTCTAT)	1.6
CACTTACCTTGGGTTCTAACCTGTTGCCT (site CACTTATCTAG)	0.0355
GACATCACTTGGGTTCTAACCTGTTGCCT (site GACATCCCTAG)	0.0352
CTTCGTCCTTGGGTTCTAACCTGTTGCCT (site CTTCGTCCTAA)	0.132
ATGGTACCTTGGGTTCTAACCTGTTGCTA (site GATAACGCTAG)	0.247
CCAGCAGCTTGGGTTCTAACCTGTTGCCT (site CCAGTAGCTAG)	0.76
CTACACTCTTGGGTTCTAACCTGTTGCCT (site CTACACTCTAG)	2.18
CTTCGTACTTGGGTTCTAACCTGTTGCCA (site CTTCGTACTTG)	0.213
CAGCATCCTTGGGTTCTAACCTGTTGCAG (site ATCACGTCTAG)	0.157
TATTATCCTTGGGTTCTAACCTGTTGCCT (site TATTATCCTAG)	0.0487
GGTGGTCCTTGGGTTCTAACCTGTTGCCT (site GGTGGTCCTAG)	1.36
CTACCCTCTTGGGTTCTAACCTGTTGCAT (site CTACCCTCTAT)	2.87
GTCCAGCCTTGGGTTCTAACCTGTTGCAC (site GTCCAGCCTGT)	2.18
ATTAAGACTTGGGTTCTAACCTGTTGCCT (site ATTAAGACTAG)	1.35
GCGACTCCTTGGGTTCTAACCTGTTGCTT (site GCGACTCCTAA)	0.0299
